Source: US20230146455A1, “TREATMENT OF INFLAMMATORY DISEASES WITH PEPTIDES AND PHARMACEUTICAL COMPOSITIONS” (Yuyu Pharma, Inc., priority 2020, published 2023)
Values joined by “and” are separate entries in the source; they are usually repeats but may differ in a detail not shown here. Identical values can stand only once. “Also recorded” adds a separate entry of the source. Where a SMILES comes first, the peptide text is derived from it. [ ]: non-standard residue; d: D form. Hyp = O=C(O)[C@@H]1C[C@@H](O)CN1

Assays:
[1] = tested on: cytokine and chemokine release in human peripheral blood mononuclear cells (hPBMCs); experiment: Luminex multiplex, 30 cytokines and chemokines, LPS stimulated hPBMCs, main study (Example 8, Study 1), whole panel; format: cell-based; conditions: LPS 5 ug/mL 24 hrs; up to 500 nM
Experimental: Human PBMCs frozen in a cryopreserve was thawed, washed with Hank's Balanced Salt Solution containing 10% Fetal bovine serum, and seeded onto a 24-well plate at a density of 1×10^6 cells/well with culture RPMI media containing 10% Fetal bovine serum in growth media in a 24 well plate for 12, 24, and 48 hrs and maintained at 37° C. in an atmosphere of 95% air and 5% CO2.
(§1) Human PBMCs were pretreated with YY-101, YDE-011, YDE-043 or reference compound; Xiidra® at various concentration (ranging from […] to 500 nM) for 2 h before stimulation. An equal volume of 0.5% DMSO was used as a vehicle control. Then, the cells were treated with LPS at 5 ug/ml, which was selected based on the pilot study. The supernatants from treated cells were harvested at 24 h and placed in a 96 well for Luminex cytokine & chemokine profiling using a Luminex 200 multiplex assay (Luminex; R&D system, USA).
(§2) The main study arm with triplicate wells per group in a 24-well plate: • 1. Blank • 2. PBMC: 0.5% DMSO • 3. PBMC+LPS (5 ug/ml) • 4. PBMC+YY-101 500 nM • 5. PBMC+YY-101 50 nM • 6. PBMC+YY-101 5 nM • 7. PBMC+YY-101 0.5 nM • 8. PBMC+LPS (5 ug/ml)+Xiidra® 500 nM • 9. PBMC+LPS (5 ug/ml)+Xiidra® 50 nM • 10. PBMC+LPS (5 ug/ml)+Xiidra® 5 nM • 11. PBMC+LPS (5 ug/ml)+Xiidra® 0.5 nM • 12. PBMC+LPS (5 ug/ml)+Xiidra® 0.05 nM • 13. PBMC+LPS (5 ug/ml)+Xiidra® 0.005 nM • 14. PBMC+LPS (5 ug/ml)+YY-101 500 nM • 15. PBMC+LPS (5 ug/ml)+YY-101 50 nM • 16. PBMC+LPS (5 ug/ml)+YY-101 5 nM • 17. PBMC+LPS (5 ug/ml)+YY-101 0.5 nM • 18. PBMC+LPS (5 ug/ml)+YY-101 0.05 nM • 19. PBMC+LPS (5 ug/ml)+YY-101 0.005 nM • 20. PBMC+LPS (5 ug/ml)+YDE-011 500 nM • 21. PBMC+LPS (5 ug/ml)+YDE-011 50 nM • 22. PBMC+LPS (5 ug/ml)+YDE-011 5 nM • 23. PBMC+LPS (5 ug/ml)+YDE-011 0.5 nM • 24. PBMC+LPS (5 ug/ml)+YDE-011 0.05 nM • 25. PBMC+LPS (5 ug/ml)+YDE-011 0.005 nM • 26. PBMC+LPS (5 ug/ml)+YDE-043 500 nM • 27. PBMC+LPS (5 ug/ml)+YDE-043 50 nM • 28. PBMC+LPS (5 ug/ml)+YDE-043 5 nM • 29. PBMC+LPS (5 ug/ml)+YDE-043 0.5 nM • 30. PBMC+LPS (5 ug/ml)+YDE-043 0.05 nM • 31. PBMC+LPS (5 ug/ml)+YDE-043 0.005 nM
Multiplex assay was used to measure 30 cytokines and chemokines. The 1:200 diluted cell supernatant and serial dilution of the standard were dispensed into a 96 well plate at 50 ul/well. Then, the pre-mixed cocktail of antibody-coated magnetic beads was dispensed at 50 ul/well and incubated at room temperature for 2 h in a horizontal orbital microplate shaker at 800±500 rpm. The beads were washed using a magnetic device to prevent loss. The biotin-antibody was dispensed in 50 ul of each well and incubated at room temperature for 1 h in a shaker at 800±500 rpm. […] The data was calculated with a standard five-parameter logistic nonlinear regression analysis of the data (xPonent software 4.2, USA). […]

Leptin = experiment: Example 8 main study Luminex, LPS hPBMCs: Leptin; format: cell-based, human; conditions: PBMC + LPS(5 ug/ml)
Experimental: as §1, §2
(§3) Multiplex assay was used to measure 30 cytokines and chemokines. The 1:200 diluted cell supernatant and serial dilution of the standard were dispensed into a 96 well plate at 50 ul/well. Then, the pre-mixed cocktail of antibody-coated magnetic beads was dispensed at 50 ul/well and incubated at room temperature for 2 h in a horizontal orbital microplate shaker at 800±500 rpm. The beads were washed using a magnetic device to prevent loss. The biotin-antibody was dispensed in 50 ul of each well and incubated at room temperature for 1 h in a shaker at 800±500 rpm. After washing, streptavidin-PE was added at 50 ul/well and incubated at room temperature for 30 min in a shaker under the same conditions. Finally, after washing, wash buffer (100 ul/well) was added to the plate and incubated in a shaker for 2 min. The Luminex™ 200 setting were set according to the manufacturer's protocol. The data was calculated with a standard five-parameter logistic nonlinear regression analysis of the data (xPonent software 4.2, USA). Results were presented as concentration (ng/ml or pg/ml).

CCL2/MCP-1 = experiment: Example 8 main study Luminex, LPS hPBMCs: CCL2/MCP-1; format: cell-based, human; conditions: for CCL2/MCP-1 Concentration: single replicates
Experimental: as §1, §2, §3

IL-6 = experiment: Example 8 main study Luminex, LPS hPBMCs: IL-6; format: cell-based, human; conditions: for IL-6 Concentration: single replicates (1st, 2nd, 3rd)
Experimental: as §1, §2, §3

[2] = PBMC + LPS(5 ug/ml) + YDE043 0.005 nM
[3] = PBMC + LPS(5 ug/ml) + YDE043 0.05 nM
[4] = PBMC + LPS(5 ug/ml) + YDE043 0.5 nM
[5] = PBMC + LPS(5 ug/ml) + YDE043 5 nM
[6] = PBMC + LPS(5 ug/ml) + YDE043 50 nM
[7] = PBMC + LPS(5 ug/ml) + YDE043 500 nM
[8] = at as low as 5 μM, LPS 5 ug/mL 24 hrs
[9] = PBMC + LPS(5 ug/ml) + test article 0.005 nM
[10] = PBMC + LPS(5 ug/ml) + test article 0.05 nM
[11] = PBMC + LPS(5 ug/ml) + test article 0.5 nM
[12] = PBMC + LPS(5 ug/ml) + test article 5 nM
[13] = PBMC + LPS(5 ug/ml) + test article 50 nM
[14] = PBMC + LPS(5 ug/ml) + test article 500 nM

CC(C)C[C@H](NC(=O)[C@H](CCC(N)=O)NC(=O)CNC(=O)[C@@H]1C[C@@H](O)CN1)C(=O)NCC(=O)O [YDE-043] (H-[Hyp]GQLG-OH; N-terminus and C-terminus assumed)
LPS-induced cytokine/chemokine levels, whole panel (in words) [1]: more effectively lowered cytokine and chemokine production; also recorded: potently and significantly reduced pro-inflammatory cytokine/chemokine production | Leptin Concentration (pg/ml), Mean (Leptin; test article 0.005 nM): 19724.6 pg/mL | Leptin Concentration (pg/ml), single replicates (Leptin; test article 0.005 nM): 18547.4 pg/ml (2×) and 22079.2 pg/ml | Leptin Concentration (pg/ml), Mean (Leptin; test article 0.05 nM): 10481.4 pg/mL | Leptin Concentration (pg/ml), single replicates (Leptin; test article 0.05 nM): 10481.4 pg/ml and <98.95 pg/ml (2×) | Leptin Concentration (pg/ml), Mean (Leptin; test article 0.5 nM): 15646.1 pg/mL | Leptin Concentration (pg/ml), single replicates (Leptin; test article 0.5 nM): 12493.0 pg/ml and 17222.7 pg/ml (2×) | Leptin Concentration (pg/ml), Mean (Leptin; test article 5 nM): 15505.7 pg/mL | Leptin Concentration (pg/ml), single replicates (Leptin; test article 5 nM): 19789.4 pg/mL and 12493.0 pg/mL and 14234.9 pg/mL | Leptin Concentration (pg/ml), Mean (Leptin; test article 50 nM): 18458.0 pg/mL | Leptin Concentration (pg/ml), single replicates (Leptin; test article 50 nM): 15795.3 pg/ml and 19789.4 pg/ml (2×) | Leptin Concentration (pg/ml), Mean (Leptin; test article 500 nM): 10678.9 pg/mL | Leptin Concentration (pg/ml), single replicates (Leptin; test article 500 nM): 17222.7 pg/mL and 4332.6 pg/mL and 10481.4 pg/mL | CCL2/MCP-1 Concentration, Mean (CCL2/MCP-1; [2]): 4629.2 pg/mL | CCL2/MCP-1 Concentration (CCL2/MCP-1; [2]): 4425.5 pg/ml and 4731.0 pg/ml (2×) | CCL2/MCP-1 Concentration, Mean (CCL2/MCP-1; [3]): 4545.3 pg/mL | CCL2/MCP-1 Concentration (CCL2/MCP-1; [3]): 4528.4 pg/mL and 4477.1 pg/mL and 4630.2 pg/mL | CCL2/MCP-1 Concentration, Mean (CCL2/MCP-1; [4]): 4390.9 pg/mL | CCL2/MCP-1 Concentration (CCL2/MCP-1; [4]): 4425.5 pg/ml (2×) and 4321.5 pg/ml | CCL2/MCP-1 Concentration, Mean (CCL2/MCP-1; [5]): 4562.3 pg/mL | CCL2/MCP-1 Concentration (CCL2/MCP-1; [5]): 4579.5 pg/mL and 4477.1 pg/mL and 4630.2 pg/mL | CCL2/MCP-1 Concentration, Mean (CCL2/MCP-1; [6]): 4578.9 pg/mL | CCL2/MCP-1 Concentration (CCL2/MCP-1; [6]): 4528.4 pg/mL and 4731.0 pg/mL and 4477.1 pg/mL | CCL2/MCP-1 Concentration, Mean (CCL2/MCP-1; [7]): 4630.2 pg/mL | CCL2/MCP-1 Concentration (CCL2/MCP-1; [7]): 4630.2 pg/mL | LPS-induced CCL-2 (in words) (CCL2/MCP-1; [8]): significantly reduced | IL-6 Concentration, Mean (IL-6; [9]): 17678.1 pg/mL | IL-6 Concentration (IL-6; [9]): 15726.2 pg/mL and 16772.5 pg/mL and 20535.6 pg/mL | IL-6 Concentration, Mean (IL-6; [10]): 14253.4 pg/mL | IL-6 Concentration (IL-6; [10]): 13386.9 pg/mL and 14716.3 pg/mL and 14657.0 pg/mL | IL-6 Concentration, Mean (IL-6; [11]): 14811.5 pg/mL | IL-6 Concentration (IL-6; [11]): 15322.2 pg/mL and 15084.6 pg/mL and 14027.7 pg/mL | IL-6 Concentration, Mean (IL-6; [12]): 16507.0 pg/mL | IL-6 Concentration (IL-6; [12]): 16380.0 pg/mL and 17224.5 pg/mL and 15916.4 pg/mL | IL-6 Concentration, Mean (IL-6; [13]): 16067.3 pg/mL | IL-6 Concentration (IL-6; [13]): 16962.8 pg/mL and 16570.3 pg/mL and 14668.8 pg/mL | IL-6 Concentration, Mean (IL-6; [14]): 14209.8 pg/mL | IL-6 Concentration (IL-6; [14]): 13873.4 pg/ml (2×) and 14882.6 pg/ml | LPS-induced IL-6 (in words) (IL-6; [8]): significantly reduced
